Assay results published in US8299021B2, “Macrocyclic inhibitors of hepatitis C virus replication” (InterMune, Inc., priority 2005, dated 2012).
Where two headings read alike, the source gives them in different places.

Legend:
[1] = test system: HCV sub-genomic replicon GS4.3 (HuH-7 hepatoma cells); assay: Quantitation by ELISA of neomycin phosphotransferase II (NPTII) in the HCV sub-genomic replicon, GS4.3; assay type: cell-based
Text: Quantitation by ELISA of the Selectable Marker Protein, Neomycin Phosphotransferase II (NPTII) in the HCV Sub-Genomic Replicon, GS4.3
The HCV sub-genomic replicon (1377/NS3-3′, accession No. AJ242652), stably maintained in HuH-7 hepatoma cells, was created by Lohmann et al. Science 285: 110-113 (1999). The replicon-containing cell culture, designated GS4.3, was obtained from Dr. Christoph Seeger of the Institute for Cancer Research, Fox Chase Cancer Center, Philadelphia, Pa.
GS4.3 cells were maintained at 37° C., 5% CO2, in DMEM (Gibco 11965-092) supplemented with L-glutamine 200 mM (100×) (Gibco25030-081), non-essential amino acids (NEAA)(Biowhittaker 13-114E), heat-inactivated (HI) Fetal Bovine Serum(FBS)(Hyclone SH3007.03) and […] geneticin (G418)(Gibco 10131-035). Cells were sub-divided 1:3 or 4 every 2-3 days.
24 h prior to the assay, GS4.3 cells were collected, counted, and plated in 96-well plates (Costar 3585) at 7500 cells/well in 100 μl standard maintenance medium (above) and incubated in the conditions above. To initiate the assay, culture medium was removed, cells were washed once with PBS (Gibco 10010-023) and 90 μl Assay Medium (DMEM, L-glutamine, NEAA, 10% HI FBS, no G418) was added. Inhibitors were made as a 10× stock in Assay Medium, (3-fold dilutions from 10 μM to […] final concentration, final DMSO concentration 1%), 10 μl were added to duplicate wells, plates were rocked to mix, and incubated as above for 72 h.
An NPTII Elisa kit was obtained from AGDIA, Inc. (Compound direct ELISA test system for Neomycin Phosphotransferase II, PSP 73000/4800). Manufacturer's instructions were followed, with some modifications. 10×PEB-1 lysis buffer was made up to include 500 μM PMSF (Sigma P7626, 50 mM stock in isopropanol). After 72 h incubation, cells were washed once with PBS and 150 μlPEB-1 with PMSF was added per well. Plates were agitated vigorously for 15 minutes, room temperature, then frozen at −70° C. Plates were thawed, lysates were mixed thoroughly, and 100 μl were applied to an NPTII Elisa plate. A standard curve was made. Lysate from DMSO-treated control cells was pooled, serially diluted with PEB-1 with PMSF, and applied to duplicate wells of the ELISA plate, in a range of initial lysate amount of 150 ul-2.5 ul. In addition, 100 μl buffer alone was applied in duplicate as a blank. Plates were sealed and gently agitated at room temperature for 2 h. Following capture incubation, the plates were washed 5×300 μlwith PBS-T (0.5% Tween-20, PBS-T was supplied in the ELISA kit). For detection, a 1× dilution of enzyme conjugate diluent MRS-2 (5×) was made in PBS-T, into which 1:100 dilutions of enzyme conjugates A and B were added, as per instructions. Plates were resealed, and incubated with agitation, covered, room temperature, for 2 h. The washing was then repeated and 100 μlof room temperature TMB substrate was added. After approximately 30 minutes incubation (room temperature, agitation, covered), the reaction was stopped with 50 μl 3M sulfuric acid. Plates were read at 450 nm on a Molecular Devices Versamax plate reader.
Inhibitor effect was expressed as a percentage of DMSO-treated control signal, and inhibition curves were calculated using a 4-parameter equation: y=A+4B-A)/(1+((C/x)^13))), where C is half-maximal activity or EC50.

[2] = biological target: T1, NS3-NS4 protease (full-length NS3/NS4A-2) (Hepatitis C virus genotype 1a, UniProt P27958); assay: NS3-NS4 protease assay / NS3 inhibition assay (RETS1 substrate, fluorescence kinetic read); assay type: biochemical; details: read-out: NS3-NS4 IC50
T1 construct: Recombinant E. coli or Baculovirus full-length NS3 was diluted to 3.33 μM with assay buffer; made in house; host or cells: E. coli or baculovirus (insect cells)
Experimental: NS3 complex formation with NS4A-2.
The appropriate amount of NS4A-2 to 8.3 mM in assay buffer was added to equal the volume of NS3 in step 2.1.1 (conversion factor—3.8 mg/272 μL assay buffer). The material was transferred to an eppendorf tube and place in water bath in 4° C. refrigerator.
After equilibration to 4° C., equal volumes of NS3 and NS4A-2 solutions were combined in an eppendorf tube, mix gently with a manual pipettor, and incubate mixture for 15 minutes in the 4° C. water bath.
After 15 minutes at 4° C., the NS3/NS4A-2 eppendorf tube was removed and place it in a room temperature water bath for 10 minutes. NS3/NS4A-2 was alliquoted at appropriate volumes and store at −80° C. (E. coli NS3 run at 2 nM in assay, aliquot at 25 μL. BV NS3 run at 3 nM in assay, aliquot at 30 μL).
Sample compounds were dissolved to 10 mM in DMSO then diluted to 2.5 mM (1:4) in DMSO.
The E. coli. […] Using the manual multichannel pipettor, careful not to introduce bubbles into the plate, add 50 μL assay buffer to wells A01-H01 of a black Costar 96-well polypropylene storage plate.
Using the manual multichannel pipettor, careful not to introduce bubbles into the plate, add 50 μL of diluted NS3/NS4A-2 from step 2.2.6 to wells A02-H12 of plate in step 2.2.7. Using the manual multichannel pipettor, careful not to introduce bubbles into the plate, transfer 25 μL of the wells in drug dilution plate in step 2.2.5 to corresponding wells in assay plate in step 2.2.8. Change tips on multichannel pipettor for each row of compounds transferred. Using the manual multichannel pipettor, careful not to introduce bubbles into the plate, mix the wells from the assay plate in step 2.2.9 by aspirating and dispensing 35 μL of the 75 μL in each well five times. Change tips on multichannel pipettor for each row of wells mixed. Cover plate with a polystyrene plate lid and pre-incubate the plate from step 2.2.10 containing NS3 protease and sample compounds 10 minutes at room temperature. While plate from step 2.2.11 is pre-incubating, dilute RETS1 substrate in a 15 mL polypropylene centrifuge tube.
After the plate in step is done pre-incubating, and using the manual multichannel, add 25 μL of substrate to all wells on the plate. Quickly mix the plate as in step 2.2.10, mixing 65 μL of the 100 μL in the wells.
Read the plate in kinetic mode on the Molecular Devices SpectraMax
IC50s are determined using a four parameter curve fit equation, and converted to Ki's using the following Km's:
where Ki=IC50/(1+[S]/Km))

[3] = Hepatitis C virus, Huh-7, GS4.3 cells, 72 h, read-out: Replicon EC50
[4] = Hepatitis C virus, Huh-7, Table 26, read-out: EC50
[5] = GS4.3 cells, 72 h, read-out: Replicon EC50
[6] = Hepatitis C virus, Huh-7, 72 h, read-out: Replicon EC50

T1 sequence (P27958 1027-1657): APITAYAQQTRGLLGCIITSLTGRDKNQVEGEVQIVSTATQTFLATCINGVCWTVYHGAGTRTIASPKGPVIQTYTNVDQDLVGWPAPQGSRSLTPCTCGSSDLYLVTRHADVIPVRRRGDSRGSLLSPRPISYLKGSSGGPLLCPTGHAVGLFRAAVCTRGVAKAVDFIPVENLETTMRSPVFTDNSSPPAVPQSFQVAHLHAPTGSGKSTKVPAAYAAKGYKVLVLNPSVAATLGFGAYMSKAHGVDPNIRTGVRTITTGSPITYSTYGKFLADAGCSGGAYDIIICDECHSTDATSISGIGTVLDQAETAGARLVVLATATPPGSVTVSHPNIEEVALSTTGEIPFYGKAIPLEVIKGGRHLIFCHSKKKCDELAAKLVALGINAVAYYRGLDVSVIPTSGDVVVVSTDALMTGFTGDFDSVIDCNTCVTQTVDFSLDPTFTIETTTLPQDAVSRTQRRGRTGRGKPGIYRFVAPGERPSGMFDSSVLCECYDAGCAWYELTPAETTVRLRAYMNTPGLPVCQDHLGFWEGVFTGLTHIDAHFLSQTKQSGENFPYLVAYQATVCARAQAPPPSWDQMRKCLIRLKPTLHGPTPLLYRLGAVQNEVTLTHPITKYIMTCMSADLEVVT

SMILES	EC50 [1, 3]	IC50 [2]	further results
CC(C)(C)OC(=O)N[C@H]1CCCCC/C=C\[C@@H]2C[C@@]2(C(=O)NS(=O)(=O)C2(C)CC2)NC(=O)[C@@H]2C[C@@H](OC(=O)N3Cc4ccccc4C3)CN2C1=O [Compound 100, (1S,4R,6S,14S,18R)-1,3-Dihydro-isoindole-2-carboxylic acid 14-tert-butoxycarbonylamino-4-(1-methylcyclopropane-1-sulfonyl)aminocarbonyl-2,15-dioxo-3,16-diaza-tricyclo[14.3.0.0^4,6]nonadec-7-en-18-yl Ester]	< 100 nM	< 100 nM	
CC(C)(C)OC(=O)N[C@H]1CCCCC/C=C\[C@@H]2C[C@@]2(C(=O)NS(=O)(=O)C2CC2)NC(=O)[C@@H]2CCCN2C1=O [Compound 2137, 1S,4R,6S,14S)tert-but 14-Cyclopropanesulfonylaminocarbonyl-2,15-dioxo-3,16-diaza-tricyclo[14.3.0.0^4,6]nonadec-7-ene-14-yl carbamate]		> 10000 nM	EC50 [1, 4]: > 10000 nM
CC(C)(C)OC(=O)N[C@H]1CCCCC/C=C\[C@@H]2C[C@@]2(C(=O)O)NC(=O)C2C[C@@H](OC(=O)N3Cc4cccc(Cl)c4C3)CN2C1=O (stereo partly shown) [Compound 177]	< 10000 nM	< 100 nM	
CC(C)(C)OC(=O)N[C@H]1CCCOC/C=C\[C@@H]2C[C@@]2(C(=O)NS(=O)(=O)C2CC2)NC(=O)[C@@H]2C[C@@H](OC(=O)N3Cc4cccc(F)c4C3)CN2C1=O [Compound 1021, (2R,6S,13aS,14aR,16aS,Z)-6-(tert-butoxycarbonylamino)-14a-(cyclopropylsulfonylcarbamoyl)-5,16-dioxo-2,3,5,6,7,8,9,11,13a,14,14a,15,16,16a-tetradecahydro-1H-cyclopropa(e)pyrrolo[2,1-i][1,7,10]oxadiazacyclopentadecin-2-yl 4-fluoroisoindoline-2-carboxylate]		< 10000 nM	EC50 [1, 5]: > 10000 nM
O=C1N[C@]2(C(=O)NS(=O)(=O)C3CC3)C[C@H]2/C=C\CCCCC[C@H](NCc2ccc(CO)o2)C(=O)N2C[C@H](OC(=O)N3Cc4cccc(F)c4C3)C[C@@H]12 [Compound 913]	< 1000 nM	< 100 nM	
O=C(CCC(F)(F)F)N[C@H]1CCCCC/C=C\[C@@H]2C[C@@]2(C(=O)NS(=O)(=O)C2CC2)NC(=O)[C@@H]2CCCN2C1=O [Compound 2139]		> 10000 nM	EC50 [1, 4]: < 1000 nM
CC(C)(C)OC(=O)N[C@H]1CCCCC/C=C\[C@@H]2C[C@@]2(C(=O)NC(=O)c2ccccc2)NC(=O)[C@@H]2C[C@@H](OC(=O)N3Cc4ccccc4C3)CC2C1=O (stereo partly shown) [Compound 705]	< 100 nM	< 100 nM	
O=C1N[C@]2(C(=O)NS(=O)(=O)C3CC3)C[C@H]2/C=C\CCCCC[C@H](NC(=O)C2(C(F)(F)F)CC2)C(=O)N2C[C@H](OC(=O)N3Cc4cccc(Cl)c4C3)C[C@@H]12 [Compound 265]	< 100 nM	< 100 nM	
C[C@@H](NC(=O)O[C@@H]1C[C@H]2C(=O)N[C@]3(C(=O)NS(=O)(=O)C4CC4)C[C@H]3/C=C\CCCCC[C@H](NC(=O)OC(C)(C)C)C(=O)N2C1)c1ccc(F)cn1 [Compound 150]		< 100 nM	EC50 [1, 5]: > 10000 nM
COc1ccc(S(=O)(=O)NC(=O)[C@@]23C[C@H]2/C=C\CCCCC[C@H](NC(=O)OC2CCCC2)C(=O)N2C[C@H](OC(=O)N4CCc5ccccc5C4)C[C@H]2C(=O)N3)cc1 [Compound 120]			EC50 [1, 6]: < 100 nM
CC(C)(C)OC(=O)N[C@H]1CCC(F)(F)CCCC[C@@H]2C[C@@]2(C(=O)NS(=O)(=O)C2CC2)NC(=O)[C@@H]2C[C@@H](OC(=O)N3Cc4cccc(F)c4C3)CN2C1=O [Compound 1010, (2R,6S,13aS,14aR,16aS,Z)-6-(tert-butoxycarbonylamino)-14a-(cyclopropylsulfonylcarbamoyl)-9,9-difluoro-5,16-dioxooctadecahydrocyclopropa (e) prrolo[1,2-a][1,4]diazacyclopentadecine 2-yl 4-fluoroisoindoline-2-carboxylate]	< 100 nM	< 100 nM	
CC(C)(C)OC(=O)N[C@H]1CCN(S(=O)(=O)c2ccccc2[N+](=O)[O-])CC/C=C\[C@@H]2C[C@@]2(C(=O)O)NC(=O)[C@@H]2C[C@@H](OC(=O)N3Cc4cccc(F)c4C3)CN2C1=O [Compound 1029]	< 10000 nM	< 100 nM	
CC(C)(C)OC(=O)NC1CCCCC/C=C\[C@H]2C[C@@]2(C(=O)NS(=O)(=O)NCC(F)(F)F)NC(=O)C2CC(OC(=O)N3Cc4cccc(Cl)c4C3)CN2C1=O (single isomer, unassigned) [Compound 226]	< 100 nM	< 100 nM	
C[C@H](NC(=O)O[C@@H]1CC2C(=O)N[C@]3(C(=O)NS(=O)(=O)C4CC4)C[C@H]3/C=C\CCCCC[C@H](NC(=O)OC(C)(C)C)C(=O)N2C1)c1ccc(F)cn1 (stereo partly shown) [Compound 149]	> 10000 nM		
CC(C)(C)OC(=O)N[C@H]1CCCCC/C=C\[C@@H]2C[C@@]2(C(=O)O)NC(=O)C2C[C@@H](OC(=O)N3Cc4c(Cl)ccc(Cl)c4C3)CN2C1=O (stereo partly shown) [Compound 144]	< 10000 nM		
CC(C)(C)OC(=O)N[C@H]1CCCCC/C=C\[C@@H]2C[C@@]2(C(=O)NS(=O)(=O)C2CC2)NC(=O)C2C[C@@H](OC(=O)N3Cc4c(Cl)ccc(Cl)c4C3)CN2C1=O (stereo partly shown) [Compound 145]	< 100 nM		
N[C@H]1CCCCC/C=C\[C@@H]2C[C@@]2(C(=O)NS(=O)(=O)C2CC2)NC(=O)C2C[C@@H](OC(=O)N3Cc4c(Cl)ccc(Cl)c4C3)CN2C1=O (stereo partly shown) [Compound 156]	< 1000 nM		
O=C1N[C@]2(C(=O)NS(=O)(=O)C3CC3)C[C@H]2/C=C\CCCCC[C@H](NC(=S)NC2CCCC2)C(=O)N2CC(OC(=O)N3Cc4cccc(F)c4C3)C[C@@H]12 (stereo partly shown) [Compound 240]	< 1000 nM		
COc1cccc(S(=O)(=O)NC(=O)[C@@]23C[C@H]2/C=C\CCCCC[C@H](NC(=O)OC2CCCC2)C(=O)N2C[C@H](OC(=O)N4CCc5ccccc5C4)C[C@H]2C(=O)N3)c1 [Compound 188]			EC50 [1, 6]: < 100 nM
